System: HDF cells
Assay: Scratch assay: fibroblast cell migration and wound closure
Assay type: cell-based, Human
Settings: 10 µM, single components, Fig. 2
Description: Human dermal fibroblasts (HDF) (ATCC, Manassas, VA, USA) were grown in fibroblast basal medium supplemented with fibroblast growth kit-serum free (ATCC). Activation, proliferation and migration of fibroblasts are the primary steps in wound healing, where multiple cell types and other micro environmental factors are involved. Scratch assay is a widely applied In vitro technique for understanding the wound healing capabilities of medicinally important compounds. HDF cells were seeded in 6-well plates and were cultured overnight. Cells were then washed with Delbucco's Phosphate Buffered Saline (DPBS) and a scratch was made with a sterile 200µL tip. The detached cells and other cellular debris were removed by washing the cells with DPBS. The cells were treated with 10 µM of AND (source of Example 1), HYX (source of Example 1), or AND + HYX (1/1 ratio, same sources) and incubated for 24 h. Untreated cells were negative control. […] The experiments were performed in triplicate (n = 3). The width of the scratch and wound closure at different time intervals (0, 12, 24 and 48hrs) was analyzed by Image J software.

## C=C1CC[C@@H]2[C@](C)(CO)[C@H](O)CC[C@@]2(C)[C@@H]1C/C=C1/C(=O)OC[C@H]1O [AND, 3-[2-[Decahydro-6-hydroxy-5-(hydroxymethyl)-5,8a-dimethyl-2-methylene-1-napthalenyl]ethylidene]dihydro-4-hydroxy-2(3H)-furanone]
  percentage of cell migration (in words, relative to the AND+HYX combination): well lower
